In patent publication US20150045313A1, “Ectoparasiticidal Methods and Formulations” (Eli Lilly and Company, priority 2009, published 2015):

Columns and labels:
[1] = system: Cat Flea; assay: Flea Contact Assay (FCA)
Protocol: Flea Contact Assay (FCA)/Cat Flea: Test material is formulated in acetone at the desired exposure concentration and doubling dilutions performed to obtain a total of 10 testing levels. Approximately 0.05 ml of formulated material is dispensed into the bottom of a test tube containing a small amount of dog hair. Acetone is allowed to evaporate under a fume hood overnight. Approximately 10 mixed-sex adult cat flea are anesthetized using carbon dioxide and dispensed into each tube. Tubes are sealed using a ventilated plastic cap and incubated at 27° C. and 75-80% relative humidity. […] Nonlinear regression is used to model dose-mortality relationship and obtain relative potency (LD50) data compared to contemporaneous controls (acetone-only or fipronil).

[2] = system: Lone Star Tick; assay: Larval Packet Test (LPT)
Protocol: Larval Packet Test (LPT)/Ticks: Test material is formulated in a 2:1 ratio of trichloroethylene: olive oil. Tissue biopsy bags are saturated with 1 ml of formulated material (n=3 per test level), and bags are allowed to dry under a fume hood for at least 2 hours. Approximately 50-100 larval-stage ticks are placed into each bag, and the bag is sealed using a plastic dialysis clip and incubated for 24 h at 27° C. and 95% relative humidity. Bags are then opened, and live/dead ticks are enumerated. Nonlinear regression is used to model dose-mortality relationship and obtain relative potency (LD50) data compared to contemporaneous controls (solvent-only or fipronil).

[3] = system: ticks (Amblyomma americanum); assay: Surrogate Animal bioassay, topical exposure on rats; format: in vivo; conditions: formulated in ethanol, 48 h
Protocol: Surrogate Animal bioassay/ticks(Amblyomma americanum) and fleas:
Topical exposure—Test materials are formulated in ethanol or acetone at the desired testing concentrations, typically 6% active ingredient or lower. Either doubling or log-dilutions are performed in ethanol to obtain additional testing concentrations (3.0, 0.3, 0.03, and 0.003 mg/cm^3). A tick containment unit is affixed to the back or adult male or female rats, and 0.05 ml of formulated test material is applied topically to the surface area inside of the containment unit. Materials are allowed to dry overnight, after which time 10 unfed dog tick nymphs are placed into each containment unit. A total of 5 rats are normally used for each test concentration. Ticks are allowed to attach and feed on treated animals for 48 h, after which time containment units are opened and live/dead ticks are enumerated. Rats may be co-infested with adult cat fleas at the time of tick infestation to obtain data for topical insecticide activity using the same animal.

[4] = system: Lone Star Tick (Amblyomma americanum); assay: Cattle Ectoparasiticide Test, single dose whole-body spray against lone star tick; format: in vivo
Excerpt: (§1) Cattle Ectoparasiticide Test (CET)/Horn Fly (Haematobia irritans) and/or Adult Tick (Amblyomma americanum): Cattle are housed in environmentally controlled rooms, 1 or 2 animals per room that have screened doors and ventilation system to prevent fly escape. Following treatment application, a defined number of horn flies are released into each room (typically at or above economic threshold of 200 flies per animal). After defined periods of time, the numbers of live horn flies remaining on animals are enumerated. If a combination horn fly and tick experiment is conducted, adult lone star ticks are placed into surgical stockinette enclosures that are glued onto the backs of cattle. Cattle are restrained in a modified head gate within environmentally controlled rooms. Horn flies may be enumerated, followed by determination of the numbers of dead ticks inside of containment units. Typically there are 2 containment units per animal and at least 2 animals per treatment group.
A) Single Dose Efficacy Testing and Comparison of Spinetoram with Elector against Lone Star Tick (Amblyomma americanum) Infestations on Cattle. Technical spinetoram was formulated as a 25 g/L suspension concentrate using the same formulatin components as found in Elector. Test material was applied to animals as a whole-body topical spray. Total of two animals per treatment group; each animal harbored ticks inside of 3 containment units (n=3 per animal or n=6 per treatment group). Concentrates (25 g/L) diluted in water; treatment level equivalent to marketed rate for Elector (0.5 g AI per animal).

[5] = system: Horn Fly (Haematobia irritans); assay: Cattle Ectoparasiticide Test, pour-on or spray against horn flies; format: in vivo
Excerpt: as §1
B) Therapeutic and residual efficacy testing of spinetoram and Elector against horn flies when applied topically to cattle as a pour-on or topical spray. Spinetoram (120 g/L), Elector (25 g/L spinosad) as described previously were used. Test material was applied to animals as either a whole-body topical spray or neat pour-on. Spinetoram was diluted in water to 25 g/L prior to application as a pour-on. Both materials were diluted in water to 0.04% (400 ppm) for application as a whole-body spray in a total volume of 1 L per animal. There were a total of six animals per treatment group (n=6) plus six negative control animals. Beef and dairy cattle were used. Following treatments, horn flies were released into rooms harboring cattle. Live flies were enumerated 24 h following challenges.

[6] = system: fleas (C. felis); assay: Third evaluation, speed-of-kill of topical spot-on against fleas on cats; format: in vivo; set-up: flea reduction 12 hours after additional infestation: concentration or dose not given beside the values
Protocol: Third evaluation of spinetoram as a topical spot-on for control of cat flea infestations. A study was conducted to evaluate the speed-of-kill efficacy of spinetoram applied topically for the control of fleas (C. felis) on cats. Thirty-six cats were evenly allocated into six groups. One group was a no treatment and no vehicle group. On study days −8 and −1, each cat was infested with approximately 100 newly emerged, unfed adult fleas (C. felis), with an approximate split of 50/50 male to female flea. The topical solution used was spinetoram, on a pure basis, 39.6% w/w (210 mg spinetoram/0.5 ml dose), with benzyl alcohol and butylated hydroxytoluene. The treated groups were dosed once on Study Day 0 by application at the base of the skull at skin level, and flea counts were conducted as follows: […]

Substance: Spinetoram
- Potency (EC50 ng/cm^2) 24 h ([1]; Cat Flea, 24 h): 1.292 ng/cm^2
- Spinetoram: Spinosad Potency Ratio 24 h ([1]; Cat Flea, 24 h): 2.4
- Potency (EC50 ng/cm^2) 48 h ([1]; Cat Flea, 48 h): 0.6238 ng/cm^2
- Spinetoram: Spinosad Potency Ratio 48 h ([1]; Cat Flea, 48 h): 2.4
- times more potent than spinosad in vitro ([1]; adult cat fleas, time not stated): 2.4 times
- Spinetoram/Spinosad Potency Ratio ([2]; Lone Star Tick): 0.4
- Potency (EC50) ([2]; Lone Star Tick larvae, 24 h): 531.6 ppm
- topical activity against tick nymphs compared to spinosad [3]: equivalent to that of spinosad
- percent tick reduction, 2 hr ([4]; cattle, whole-body spray 0.5 g AI per animal, Day 1, 2 hr): 0%
- percent tick reduction, 6 hr ([4]; cattle, whole-body spray 0.5 g AI per animal, Day 1, 6 hr): 0%
- percent tick reduction, 10 hr ([4]; cattle, whole-body spray 0.5 g AI per animal, Day 1, 10 hr): 0%
- percent tick reduction, 24 hr ([4]; cattle, whole-body spray 0.5 g AI per animal, Day 2, 24 hr): 0%
- percent tick reduction, 48 hr ([4]; cattle, whole-body spray 0.5 g AI per animal, Day 3, 48 hr): 8.14%
- percent tick reduction, 72 hr ([4]; cattle, whole-body spray 0.5 g AI per animal, Day 4, 72 hr): 8.14%
- percent tick reduction, 144 hr ([4]; cattle, whole-body spray 0.5 g AI per animal, Day 7, 144 hr): 46.67%
- ET50 ([4]; speed of kill, adult lone star ticks on cattle, 0.5 g AI per animal): 148.2 h
- activity (potency and speed of kill) compared to Elector ([4]; topically to cattle at 0.5 g/animal): equivalent activity
- GM percent horn fly reduction after 24 hrs, Pour-on ([5]; cattle, pour-on 2 mg/kg, Initial): 100%
- GM percent horn fly reduction after 24 hrs, Spray ([5]; cattle, whole-body spray 0.04% AI, Initial): 99.9%
- therapeutic efficacy compared with Elector ([5]; horn fly infested cattle, pour-on (2 mg/kg) or whole-body spray (0.04% AI)): equivalent therapeutic efficacy
- flea reduction 1 hour after additional infestation ([6]; 28 days after treatment): 80.7%
- flea reduction 4 hours after additional infestation ([6]; 28 days after treatment): 91.6%
- flea reduction 8 hours after additional infestation ([6]; 28 days after treatment): 98.5%
- flea reduction 12 hours after additional infestation ([6]; 28 days after treatment): 100%
- flea reduction 24 hours after additional infestation ([6]; 28 days after treatment): 100%
- reduction in live flea numbers, four hours after treatment ([6]; cats, 210 mg/0.5 ml dose, 4 hours): 63.2%
- efficacy level, eight hours post-dosing ([6]; cats, 210 mg/0.5 ml dose, 8 hours): 94.6%
- efficacy, twelve hour time point ([6]; cats, 210 mg/0.5 ml dose, 12 hours): 98.6%
- efficacy, twenty-four hour time point ([6]; cats, 210 mg/0.5 ml dose, 24 hours): 100%
- flea reduction 4 hours after additional infestation ([6]; seven days after treatment): 100%
- flea reduction 8 hours after additional infestation ([6]; seven days after treatment): 100%
- flea reduction 12 hours after additional infestation ([6]; seven days after treatment): 100%
- flea reduction 24 hours after additional infestation ([6]; seven days after treatment): 100%
- fleas killed within one hour of an additional infestation ([6]; seven days after treatment, 1 hour): over 90%
